In US20170209579A1, “NON-INVASIVE RADIOFREQUENCY FIELD TREATMENT FOR CANCER THERAPY” (Baylor College of Medicine, priority 2014, published 2017):

System: Hep3B orthotopic tumors
Test: Orthotopic Hep3B xenografts in CB17 SCID mice, tumor mass
Format: in vivo, mouse
Description: For in vivo studies, an implanted mouse model of human HCC was generated in CB17SCID mice (Taconic, Hudson, N.Y.). Female mice between 4 and 5 weeks in age were purchased and acclimatized in M.D. Anderson Animal facilities for up to one week. All animals were handled, housed and studied in accordance with the Institutional Animal Care and Use Committee. Tumors were generated after orthotopic implantation of approximately 1.6 million cells into the liver of each mouse (10 mice per group). Bioluminescence imaging indicated tumor development in the majority of mice three weeks after implantation. Euthanasia was performed by carbon dioxide inhalation followed by cervical spine dislocation.
Cultured luciferase and GFP-expression human HCC cell lines (Hep3B and HepG2) were harvested from an exponentially growing culture and washed with PBS. The cells were re-suspended in 3 ml PBS and final centrifugation was performed at 1000 RPM for 5 minutes. Supernatant was discarded and the cell pellet was used for implantation. The concentration of cells achieved using this protocol was 160,000 cells per micro liter. The cells were kept on ice and animals were injected within 3-4 hours after final centrifugation.
Before surgery, hair was removed from the ventral surface of the abdomen using clippers. Mice were anesthetized using 2.5% isoflurane. The surgical field was sterilized with 70% (v/v) ethanol in water. Mice were placed supine on a heating pad and the surgical site was sterilized using povidone iodine swab sticks. After confirming induction of anesthesia, an approximately 1-cm transverse incision was made in the skin of the upper abdomen slightly left of the midline. Deeper layers of muscle and peritoneum were incised and hemostasis was achieved using silver nitrate chemical cautery sticks. By applying gentle pressure on the lower abdomen and lower chest, the left lobe of the liver was eviscerated. […]
Mice with confirmed tumors on bioluminescence were then randomized in groups of 10. […] Sample size was calculated using Stata SE 12.1 for Mac (College Station, Tex.). […]

Nc1ccn([C@@H]2O[C@H](CO)[C@@H](O)C2(F)F)c(=O)n1 [gemcitabine, 2′,2′-difluoro 2′-deoxycytidine]
Mean tumor mass [±SD] (RF then gemcitabine (RF 10 min, 600 W, immediately followed by gemcitabine)): 180 ± 91 mg
Mean tumor mass [±SD] (gemcitabine alone, 70 mg/kg/dose twice a week for three weeks): 661 ± 419 mg
Mean tumor mass [±SD] (gemcitabine then RF (RF 24 hours later)): 291 ± 126 mg
